{"source": "the supplement of paper PMC10307832", "assay_in_all_cases": "relative viability (nuclei count vs DMSO), 5 days (fraction); higher = more cells survive", "key": {"[1]": {"tested_on": "EPLC-272H", "summary_of_the_method": "(§1)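 Relative viability is defined as nuclei in treated wells over nuclei in vehicle wells. Duplicate plates were run and medians reported. Lung cancer cell lines in 1536-well plates were dosed by pin tool one day after seeding, with one drug or with a fixed anchor-drug dose plus five library-drug doses (not always all listed) in √10 steps, and nuclei were counted after 5 days.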"}, "[2]": {"tested_on": "NCI-H2009", "summary_of_the_method": "as §1"}, "[3]": {"tested_on": "LOU-NH91", "summary_of_the_method": "as §1"}, "[4]": {"tested_on": "NCI-H2023", "summary_of_the_method": "as §1"}, "[5]": {"tested_on": "EMC-BAC-2", "summary_of_the_method": "as §1"}, "[6]": {"tested_on": "HOP-62", "summary_of_the_method": "as §1"}, "[7]": {"tested_on": "NCI-H460", "summary_of_the_method": "as §1"}, "[8]": {"tested_on": "NCI-H727", "summary_of_the_method": "as §1"}, "[9]": {"tested_on": "NCI-H2170", "summary_of_the_method": "as §1"}, "[10]": {"tested_on": "NCI-H23", "summary_of_the_method": "as §1"}, "[11]": {"tested_on": "SW 1573", "summary_of_the_method": "as §1"}, "[12]": {"tested_on": "NCI-H441", "summary_of_the_method": "as §1"}}, "data": [{"smiles": "Cc1cnc(-c2cnc(NCCNc3ccc(C#N)cn3)nc2-c2ccc(Cl)cc2Cl)[nH]1", "note": "+ Cc1cc(Nc2cc(N3CCN(C)CC3)nc(Sc3ccc(NC(=O)C4CC4)cc3)n2)n[nH]1 [Tozasertib] (partner 0.1 µM)", "values": [{"measurement": "relative viability", "setting": "[1]; first compound 0.08 µM", "value": 0.321}, {"measurement": "relative viability", "setting": "[1]; first compound 0.253 µM", "value": 0.255}, {"measurement": "relative viability", "setting": "[1]; first compound 0.8 µM", "value": 0.249}, {"measurement": "relative viability", "setting": "[1]; first compound 2.53 µM", "value": 0.197}, {"measurement": "relative viability", "setting": "[2]; first compound 0.08 µM", "value": 0.734}, {"measurement": "relative viability", "setting": "[2]; first compound 0.253 µM", "value": 0.695}, {"measurement": "relative viability", "setting": "[2]; first compound 0.8 µM", "value": 0.794}, {"measurement": "relative viability", "setting": "[2]; first compound 2.53 µM", "value": 0.452}, {"measurement": "relative viability", "setting": "[3]; first compound 0.08 µM", "value": 0.648}, {"measurement": "relative viability", "setting": "[3]; first compound 0.253 µM", "value": 0.605}, {"measurement": "relative viability", "setting": "[3]; first compound 0.8 µM", "value": 0.656}, {"measurement": "relative viability", "setting": "[3]; first compound 2.53 µM", "value": 0.633}, {"measurement": "relative viability", "setting": "[4]; first compound 0.08 µM", "value": 0.353}, {"measurement": "relative viability", "setting": "[4]; first compound 0.253 µM", "value": 0.362}, {"measurement": "relative viability", "setting": "[4]; first compound 0.8 µM", "value": 0.325}, {"measurement": "relative viability", "setting": "[4]; first compound 2.53 µM", "value": 0.181}, {"measurement": "relative viability", "setting": "[5]; first compound 0.08 µM", "value": 0.313}, {"measurement": "relative viability", "setting": "[5]; first compound 0.253 µM", "value": 0.261}, {"measurement": "relative viability", "setting": "[5]; first compound 0.8 µM", "value": 0.252}, {"measurement": "relative viability", "setting": "[5]; first compound 2.53 µM", "value": 0.273}, {"measurement": "relative viability", "setting": "[6]; first compound 0.08 µM", "value": 0.321}, {"measurement": "relative viability", "setting": "[6]; first compound 0.253 µM", "value": 0.353}, {"measurement": "relative viability", "setting": "[6]; first compound 0.8 µM", "value": 0.36}, {"measurement": "relative viability", "setting": "[6]; first compound 2.53 µM", "value": 0.288}, {"measurement": "relative viability", "setting": "[7]; first compound 0.08 µM", "value": 0.48}, {"measurement": "relative viability", "setting": "[7]; first compound 0.253 µM", "value": 0.152}, {"measurement": "relative viability", "setting": "[7]; first compound 0.8 µM", "value": 0.101}, {"measurement": "relative viability", "setting": "[7]; first compound 2.53 µM", "value": 0.137}, {"measurement": "relative viability", "setting": "[8]; first compound 0.08 µM", "value": 0.639}, {"measurement": "relative viability", "setting": "[8]; first compound 0.253 µM", "value": 0.497}, {"measurement": "relative viability", "setting": "[8]; first compound 0.8 µM", "value": 0.603}, {"measurement": "relative viability", "setting": "[8]; first compound 2.53 µM", "value": 0.422}, {"measurement": "relative viability", "setting": "[9]; first compound 0.08 µM", "value": 0.73}, {"measurement": "relative viability", "setting": "[9]; first compound 0.253 µM", "value": 0.566}, {"measurement": "relative viability", "setting": "[9]; first compound 0.8 µM", "value": 0.713}, {"measurement": "relative viability", "setting": "[9]; first compound 2.53 µM", "value": 0.699}, {"measurement": "relative viability", "setting": "[10]; first compound 0.08 µM", "value": 0.383}, {"measurement": "relative viability", "setting": "[10]; first compound 0.253 µM", "value": 0.26}, {"measurement": "relative viability", "setting": "[10]; first compound 0.8 µM", "value": 0.298}, {"measurement": "relative viability", "setting": "[10]; first compound 2.53 µM", "value": 0.259}, {"measurement": "relative viability", "setting": "[11]; first compound 0.08 µM", "value": 0.177}, {"measurement": "relative viability", "setting": "[11]; first compound 0.253 µM", "value": 0.138}, {"measurement": "relative viability", "setting": "[11]; first compound 0.8 µM", "value": 0.302}, {"measurement": "relative viability", "setting": "[11]; first compound 2.53 µM", "value": 0.156}, {"measurement": "relative viability", "setting": "[12]; first compound 0.08 µM", "value": 0.775}, {"measurement": "relative viability", "setting": "[12]; first compound 0.253 µM", "value": 0.654}]}]}
